From PubChem BioAssay (NCI)
Several values for one entry are separate records, joined by “and”; a condition that tells them apart may be missing. Equal entries are not always repeated.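 Five compound concentrations were applied to cells in 96-well plates for 48 hours; endpoints were derived by simple linear interpolation of the resulting dose-response curve. At the GI50, growth is halved. TGI: concentration producing complete growth inhibition.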

Experiments:
Assay in all cases: inhibition of tumour cell growth, NCI panel, 48 h
[1] = system: CCRF-CEM leukemia
[2] = system: HCC-2998 colon
[3] = system: HCT-15 colon
[4] = system: HL-60(TB) leukemia
[5] = system: HOP-92 NSCLC
[6] = system: HT29 colon
[7] = system: K-562 leukemia
[8] = system: M14 melanoma
[9] = system: OVCAR-4 ovarian
[10] = system: SN12C renal

| SMILES | TGI [1] | TGI [2] | TGI [3] | TGI [4] [µM] | TGI [5] [µM] | TGI [6] | TGI [7] | TGI [8] [µM] | TGI [9] | TGI [10] | GI50 [1] [µM] | GI50 [2] [µM] | GI50 [3] | GI50 [4] [µM] | GI50 [5] [µM] | GI50 [6] [µM] | GI50 [7] [µM] | GI50 [8] [µM] | GI50 [9] [µM] | GI50 [10] [µM] |
| --- | --- | --- | --- | --- | --- | --- | --- | --- | --- | --- | --- | --- | --- | --- | --- | --- | --- | --- | --- | --- |
| CC(=O)O/N=C(Cl)/C(Cl)=N/OC(C)=O | > 100 µM | > 100 µM | > 100 µM | > 100 | > 100 | > 100 µM | > 100 µM | > 100 | > 100 µM | > 100 µM | – | – | – | – | – | – | – | – | – | – |
| Cc1nnc(-c2ccc(C)c(-c3ccc(C(=O)NCc4ccc(Cl)cc4)cc3)c2)o1 | > 25 µM | > 25 µM | > 25 µM | 24.5 | > 25 | > 25 µM | > 25 µM | > 25 | 16.4 µM | > 25 µM | 14.7 | 17.5 | 11.7 µM | 8.55 | 3.26 | 19.8 | 7.64 | 15.7 | 3.41 | > 18 |
| CC1CC(C)C2=NOS3=C2C1=NO3 (stereo unspecified) | > 100 µM | > 100 µM | > 100 µM | > 100 | > 100 | > 100 µM | > 100 µM | > 100 | > 100 µM | > 100 µM | – | – | – | – | – | – | – | – | – | – |
| O=C(Nc1ccc2c(c1)OCO2)C(=O)c1c[nH]c2cc(F)ccc12 | > 100 µM | > 100 µM | > 100 µM | > 100 | 5.6 | > 100 µM | 20.8 µM | 10.9 | > 100 µM | > 100 µM | 5.33 | 0.688 | 0.67 µM | 4.51 | 1.12 | 8.04 | 0.6 | 0.466 | 1.9 | 38.3 |
| O=C1C(=O)N(c2cccc(C(F)(F)F)c2)C(=O)C(=O)C1c1nc2ccccc2s1 | 65.1 µM | > 100 µM | > 100 µM | 59.8 | > 100 | > 100 µM | > 100 µM | > 100 | > 100 µM | > 100 µM | – | – | – | – | – | – | – | – | – | – |
| CN(C)CCNC(=O)c1cccc2ncc(-c3ccccc3)nc12 | 56.8 µM | 23.4 µM | 25.2 µM | 42.4 | 59.1 | 52.4 µM | 61.9 µM | 27.2 | 26.7 µM | 42.2 µM | – | – | – | – | – | – | – | – | – | – |
| CC(=O)ON(C(C)=O)C1C(COC(c2ccccc2)(c2ccccc2)c2ccccc2)OC2OC3(CCCC3)OC21 (stereo unspecified) | > 100 µM | > 100 µM | > 100 µM | > 100 | 8.27 | > 100 µM | > 100 µM | > 100 | > 100 µM | > 100 µM | – | – | – | – | – | – | – | – | – | – |
| O=S(=O)(Nc1ccc2ccccc2c1)c1ccc(-c2cnc(C3CC3)o2)cc1 | > 100 µM | 6.06 µM | 19.2 µM | 6.99 | 30.9 | 17.6 µM | > 100 µM | 14.9 | 79.9 µM | 17.3 µM | 1.64 | 1.48 | 0.557 µM | 0.407 | 3.68 | 0.429 | 0.394 | 0.701 | 3.22 | 3.69 |
| CN(C)CCC1(C2=CCCC2)CC/C(=C\c2ccccc2Cl)C1=O (stereo unspecified) | 29 µM | 22.1 µM | 19.4 µM | 19.6 | 26.3 | 20.7 µM | 14.5 µM | 26.8 | 25.8 µM | 26.7 µM | – | – | – | – | – | – | – | – | – | – |
| CC(=N)N(C)O | 53.1 µM | > 100 µM | 42.9 µM | > 100 | > 100 | > 100 µM | > 100 µM | > 100 | > 100 µM | > 100 µM | – | – | – | – | – | – | – | – | – | – |
| O=C(Cn1c(C(=O)c2ccccc2)nc2ccccc21)c1ccc(F)cc1 | > 100 µM | > 100 µM | > 100 µM | 5.9 | > 100 | > 100 µM | > 100 µM | > 100 | > 100 µM | > 100 µM | 5.75 | 6.41 | 3.56 µM | 1.65 | 60.2 | 3.51 | 2.86 | 3.67 | 24.6 | > 30.7 |
| CSc1ccc(C2=NN(C(C)=O)C(c3ccc(F)cc3)C2)cc1 (stereo unspecified) | 24.5 µM | 49.8 µM | > 100 µM | 23.6 | 22.1 | 46 µM | 36 µM | 28.8 | 37.5 µM | 12.6 µM | 0.617 | 20.4 | 19.9 µM | 5.56 | 10.1 | 15.2 | 14.5 | 14.4 | 15.9 | 1.23 |
| CC1CCc2c(c(CC3CC(=O)NC(=O)C3)nn2-c2ccccc2)C1 (stereo unspecified) | > 100 µM | > 100 µM | > 100 µM | > 100 | > 100 | > 100 µM | > 100 µM | > 100 | > 100 µM | > 100 µM | – | – | – | – | – | – | – | – | – | – |
| C/C(CCn1[nH]c(=O)ccc1=O)=N\Nc1ccc([N+](=O)[O-])cc1[N+](=O)[O-] | > 100 µM | > 100 µM | > 100 µM | > 100 | > 100 | > 100 µM | > 100 µM | > 100 | > 100 µM | > 100 µM | – | – | – | – | – | – | – | – | – | – |
| CCOc1c(C#N)c2c(N)ncnc2n1C1OC(CO)C(O)C1O (stereo unspecified) | 24 µM | 28.2 µM | > 100 µM | 6.94 | > 100 | > 34.1 µM | 16.4 µM | 5.57 | > 57.2 µM | > 100 µM | 3.18 | 3.92 | 2.15 µM | 1.94 | 2.82 | 2.89 | 1.5 | 1.92 | 3.75 | 3.14 |
| O=C(Nc1nc(-c2ccc(Cl)cc2)nc2c1sc(=S)n2-c1ccccc1)C(F)(F)F | > 100 µM | > 100 µM | > 100 µM | > 100 | 6.08 | > 100 µM | > 100 µM | > 100 | 4.19 µM | 45.3 µM | > 100 | 10.3 | 6.46 µM | > 100 | 2.35 | 3.73 | 6.37 | 7.61 | 1.95 | 11.3 |
| CCOC(=O)c1cc(-c2ccc(OC)c(OC)c2)[nH]c1N/N=C/c1c(Cl)cccc1Cl | > 100 µM | 4.38 µM | 10.7 µM | 6.15 | 26.8 | 6.28 µM | > 100 µM | 14.9 | > 62.7 µM | 22.3 µM | 2.22 | 0.668 | 2.38 µM | 1.86 | 4.58 | 0.913 | 1.69 | 2.32 | 4.46 | 3.64 |
| Nc1ccc2c(c1)Oc1c(F)c(F)cc3c(=O)c(C(=O)O)cn-2c13 | > 100 µM | > 100 µM | > 100 µM | > 100 | 96.9 | > 100 µM | > 100 µM | > 100 | > 100 µM | > 100 µM | – | – | – | – | – | – | – | – | – | – |
| COc1ccc(/C=C\c2cc(OC)c(OC)c(OC)c2)c(O)c1O | 30.8 µM and 11.4 µM | 2.47 µM and 3.06 µM | > 57.5 µM and 8.27 µM | 0.376 | – | 36.1 µM and 103 µM | 13.2 µM and 37.1 µM | 9.95 | 17 µM and 63.5 µM | 25.9 µM and 28.4 µM | 0.274 | – | 0.0628 µM and 0.0643 µM | – | 0.0588 | 20.1 | 0.333 | – | 0.959 | 0.296 |
| C=C1NC(=O)C(CC(C(=O)C(=O)Nc2c(C)cccc2C(C)(C)C)C(=O)c2ccc3ccccc3c2)C(=O)N1 (stereo unspecified) | > 100 µM | > 100 µM | > 100 µM | > 100 | > 100 | > 100 µM | > 100 µM | > 100 | > 100 µM | > 100 µM | – | – | – | – | – | – | – | – | – | – |
| CC(O)CN1c2ccccc2Sc2ccc(Cl)cc21 (stereo unspecified) | > 10 µM | > 10 µM | > 10 µM | > 10 | > 10 | > 10 µM | > 10 µM | > 10 | > 10 µM | > 10 µM | – | – | – | – | – | – | – | – | – | – |
